In brackets after ≈: the same amount, converted by molar mass. Structures can show the parent of a compound that is named as a salt. Where two headings read alike, the source gives them in different places. Marks after values point to notes of the source that are not given here.
Assays:
[1] = tested on: clade 2.3.4.4b HPAI A(H5N1) viruses (B3.13 and D1.1); experiment: microbe, parasite or virus in culture; assay type: cell-based; conditions: for EC50: Influenza A virus, H5N1, read-out: 50% effective concentrations (EC50s), range over viruses
[2] = tested on: A/Wisconsin/53/2009 (H1N1)pdm09; experiment: microbe, parasite or virus in culture; assay type: cell-based, influenza A(H1N1)pdm09 virus; conditions: Influenza A virus, H1N1, read-out: EC50 ± SD
[3] = tested on: A/bald eagle/FL/2022 (H5N1); experiment: microbe, parasite or virus in culture; assay type: cell-based, influenza A(H5N1) virus; conditions: Influenza A virus
[4] = tested on: A/California/147/2024 (CA/147, wildtype); design: species or system BALB/c mice; conditions: mouse, in vivo; for Survival (%): po
A/California/153/2024 = experiment: microbe, parasite or virus in culture; assay type: cell-based, influenza A(H5N1) virus; conditions: Influenza A virus, read-out: PA inhibitor EC50 ± SD
A/Nevada/10/2025 = experiment: microbe, parasite or virus in culture; assay type: cell-based, influenza A(H5N1) virus; conditions: Influenza A virus, read-out: PA inhibitor EC50 ± SD
A/California/152/2024 = experiment: microbe, parasite or virus in culture; assay type: cell-based, influenza A(H5N1) virus; conditions: Influenza A virus, read-out: PA inhibitor EC50 ± SD
A/California/147/2024 = experiment: microbe, parasite or virus in culture; assay type: cell-based, influenza A(H5N1) virus; conditions: Influenza A virus, read-out: PA inhibitor EC50 ± SD
A/California/155/2024 = experiment: microbe, parasite or virus in culture; assay type: cell-based, influenza A(H5N1) virus; conditions: Influenza A virus, read-out: PA inhibitor EC50 ± SD
A/California/151/2024 = experiment: microbe, parasite or virus in culture; assay type: cell-based, influenza A(H5N1) virus; conditions: Influenza A virus, read-out: PA inhibitor EC50 ± SD
A/California/148/2024 = experiment: microbe, parasite or virus in culture; assay type: cell-based, influenza A(H5N1) virus; conditions: Influenza A virus, read-out: PA inhibitor EC50 ± SD
[5] = tested on: A/Louisiana/50/2017 (H3N2); experiment: microbe, parasite or virus in culture; assay type: cell-based; conditions: Influenza A virus, H3N2, read-out: PA inhibitor EC50 ± SD
[6] = tested on: Genotype B3.13 viruses (n = 10); experiment: microbe, parasite or virus in culture; assay type: cell-based, influenza A(H5N1) virus; conditions: Influenza A virus, read-out: PA inhibitor EC50, median
[7] = tested on: A/Illinois/08/2018 (H1N1)pdm09; experiment: microbe, parasite or virus in culture; assay type: cell-based, influenza A(H1N1)pdm09 virus; conditions: Influenza A virus, H1N1, read-out: PA inhibitor EC50 ± SD
[8] = tested on: Genotype D1.1 viruses (n = 7); experiment: microbe, parasite or virus in culture; assay type: cell-based, influenza A(H5N1) virus; conditions: Influenza A virus, read-out: PA inhibitor EC50, median
[9] = target: NA of A/California/155/2024 (Influenza A virus, UniProt Q9Q0U7); assay type: biochemical, influenza A(H5N1) virus; conditions: read-out: NA inhibitor IC50 ± SD
NA of A/Wyoming/01/2025 = NA of A/Wyoming/01/2025 (Influenza A virus, UniProt Q9Q0U7); assay type: biochemical, influenza A(H5N1) virus; conditions: read-out: NA inhibitor IC50 ± SD
[10] = target: NA of A/California/173/2024 (Influenza A virus, UniProt Q9Q0U7); assay type: biochemical, influenza A(H5N1) virus; conditions: read-out: NA inhibitor IC50 ± SD
NA of A/Nevada/10/2025 = NA of A/Nevada/10/2025 (Influenza A virus, UniProt Q9Q0U7); assay type: biochemical, influenza A(H5N1) virus; conditions: read-out: NA inhibitor IC50 ± SD
NA of A/Iowa/24/2024 = NA of A/Iowa/24/2024 (Influenza A virus, UniProt Q9Q0U7); assay type: biochemical, influenza A(H5N1) virus; conditions: read-out: NA inhibitor IC50 ± SD
[11] = target: NA of A/Illinois/45/2019 (H1N1)pdm09 (Influenza A virus, UniProt A0A0X9QTS2); assay type: biochemical; conditions: read-out: NA inhibitor IC50 ± SD
[12] = target: NA of A/Illinois/08/2018 (H1N1)pdm09 (Influenza A virus, UniProt A0A0X9QTS2); assay type: biochemical; conditions: read-out: NA inhibitor IC50 ± SD
[13] = target: NA of Genotype B3.13 viruses (n = 10) (Influenza A virus, UniProt Q9Q0U7); assay type: biochemical, influenza A(H5N1) virus; conditions: read-out: NA inhibitor IC50, median
[14] = target: recNA A/Washington/239/2024 (genotype D1.1) WT (Influenza A virus, UniProt Q8QPK2); assay type: biochemical, influenza A(H5N1) virus
[15] = target: NA of A/California/148/2024 (Influenza A virus, UniProt Q9Q0U7); assay type: biochemical, influenza A(H5N1) virus; conditions: read-out: NA inhibitor IC50 ± SD
[16] = target: NA of A/Louisiana/50/2017 (H3N2) (Influenza A virus, UniProt A0A193ACB1); assay type: biochemical; conditions: read-out: NA inhibitor IC50 ± SD
[17] = target: NA of A/California/147/2024 (Influenza A virus, UniProt Q9Q0U7); assay type: biochemical, influenza A(H5N1) virus; conditions: read-out: NA inhibitor IC50 ± SD
[18] = target: NA of A/California/153/2024 (Influenza A virus, UniProt Q9Q0U7); assay type: biochemical, influenza A(H5N1) virus; conditions: read-out: NA inhibitor IC50 ± SD
[19] = target: recNA A/California/148/2024 (genotype B3.13) WT (Influenza A virus, UniProt Q9Q0U7); assay type: biochemical, influenza A(H5N1) virus
[20] = target: NA of A/bald eagle/FL/2022 (H5N1) (Influenza A virus, UniProt Q9Q0U7); assay type: biochemical; conditions: read-out: NA inhibitor IC50 ± SD
[21] = target: NA of A/California/151/2024 (Influenza A virus, UniProt Q9Q0U7); assay type: biochemical, influenza A(H5N1) virus; conditions: read-out: NA inhibitor IC50 ± SD
[22] = target: NA of Genotype D1.1 viruses (n = 7) (Influenza A virus, UniProt Q9Q0U7); assay type: biochemical, influenza A(H5N1) virus; conditions: read-out: NA inhibitor IC50, median
[23] = target: NA of A/California/152/2024 (Influenza A virus, UniProt Q9Q0U7); assay type: biochemical, influenza A(H5N1) virus; conditions: read-out: NA inhibitor IC50 ± SD

NC12CC3CC(CC(C3)C1)C2 [Amantadine, amantadine hydrochloride]
EC50 [1]: 9.25 to 21.5 ng/mL
EC50 [2]: 0.0259 ± 0.00151 µg/mL
EC50 ([3]; H5N1, read-out: EC50 ± SD): 0.0205 ± 0.00496 µg/mL

COC(=O)OCOc1c2n(ccc1=O)N([C@@H]1c3ccccc3SCc3c1ccc(F)c3F)[C@@H]1COCCN1C2=O [Baloxavir marboxil, baloxavir marboxil]
Mean TTD (day) ([4]; 5 mg/kg): 11^c day
Wt. Loss (%), mean maximum weight loss ([4]; 5 mg/kg): 5%
Wt. Loss (%), mean maximum weight loss ([4]; 15 mg/kg): 6%
Wt. Loss (%), mean maximum weight loss ([4]; 45 mg/kg): 4%
Survival (%) ([4]; 5 mg/kg): 7/8 (87.5) %
Survival (%) ([4]; 15 mg/kg): 8/8 (100) %
Survival (%) ([4]; 45 mg/kg): 8/8 (100) %

O=C1c2c(O)c(=O)ccn2N([C@@H]2c3ccccc3SCc3c2ccc(F)c3F)[C@@H]2COCCN12 [Baloxavir, baloxavir acid]
EC50s, in words [1]: sub-nanomolar
EC50 (A/California/153/2024): 0.59 nM
EC50 (A/Nevada/10/2025): 0.34 nM
EC50 (A/California/152/2024): 0.45 nM
EC50 (A/California/147/2024): 0.4 nM
EC50 (A/California/155/2024): 0.41 nM
EC50 (A/California/151/2024): 0.72 nM
EC50 (A/California/148/2024): 0.26 nM
infectious virus in any organs of treated mice [4]: not detected
loss of initial weight ([4]; 5 mg/kg): ≤ 6%
Survival (%) ([4]; 5 mg/kg): 87.5%
EC50 ([3]; H5N1, read-out: PA inhibitor EC50 ± SD): 0.39 ± 0.16 nM
EC50 [5]: 0.8 ± 0.28 nM
EC50 [6]: 0.5 nM
EC50 [7]: 0.96 ± 0.37 nM
EC50 [8]: 0.34 nM

CC(N)C12CC3CC(CC(C3)C1)C2 (stereo not drawn) [Rimantadine, rimantadine]
EC50 [1]: 3.14 to 6.48 ng/mL (≈ 0.0175 to 0.0361 µM)
EC50 [2]: 0.00608 ± 0.0009 µg/mL (≈ 0.0339 µM)
EC50 ([3]; H5N1, read-out: EC50 ± SD): 0.00574 ± 0.00131 µg/mL

CC(=O)N[C@H]1[C@H]([C@H](O)[C@H](O)CO)OC(C(=O)O)=C[C@@H]1N=C(N)N [Zanamivir, zanamivir]
IC50 [9]: 0.16 nM
IC50 (NA of A/Wyoming/01/2025): 0.46 nM
IC50 [10]: 0.23 nM
IC50 (NA of A/Nevada/10/2025): 0.36 nM
IC50 (NA of A/Iowa/24/2024): 0.34 nM

oseltamivir carboxylate
IC50 [11]: 0.28 ± 0.04 nM
IC50 [12]: 0.34 ± 0.03 nM

peramivir
IC50 [13]: 0.07 nM
IC50 [14]: 0.06 nM
IC50 [15]: 0.07 nM
IC50 [16]: 0.07 ± 0.01 nM
IC50 [17]: 0.07 nM
IC50 [9]: 0.08 nM
IC50 [18]: 0.06 nM
IC50 [19]: 0.08 nM
IC50 [20]: 0.08 ± 0.02 nM
IC50 [21]: 0.07 nM
IC50 [22]: 0.07 nM
IC50 (NA of A/Wyoming/01/2025): 0.07 nM
IC50 [10]: 0.06 nM
IC50 [11]: 0.04 ± 0.01 nM
IC50 (NA of A/Nevada/10/2025): 0.07 nM
IC50 (NA of A/Iowa/24/2024): 0.07 nM
IC50 [12]: 0.04 ± 0.01 nM
IC50 [23]: 0.08 nM
